This passage reports IC50 results from patent US20220380370A1 (Goldfinch Bio, Inc., priority 2019, published 2022).

By IC50 is commonly meant the midpoint of a concentration-inhibition curve. A lower IC50 goes with greater potency.

Molecules are shown by their SMILES.

The target in one assay is T1, CB1 receptor (Homo sapiens, UniProt P21554).
T1 construct: Perkin Elmer (CB1-CHO cells); host or cells: Flp-In CHO cells or CB1-CHO cells, stably expressing
As to the kind of experiment: CB1 cAMP antagonist assay (LANCE Ultra cAMP kit). Format: cell-based. The settings on record: CHO cells stably expressing the CB1 receptor; forskolin and agonist CP55940 at EC90. The source says: (§1) LANCE Ultra cAMP kit (Perkin Elmer) was used to quantitate the amount of 3′,5′-cyclic adenosine monophosphate (cAMP) produced in Flp-In CHO cells (Invitrogen) stably expressing the CB1 receptor, CB1-CHO cells (Perkin Elmer) stably expressing the CB1 receptor, or CB2-CHO cells (Perkin Elmer) stably expressing the CB2 receptor.
(§2) Forskolin was initially titrated to determine the response of the cells. The EC90 of forskolin was used for compound testing. CP55940 was titrated and used with EC90 of forskolin to determine the level of agonist stimulation. EC90 of the agonist was used for subsequent compound testing. For the CB1 assay, Forskolin (Sigma), CP55940 (Cayman Chemicals), and AM251 (MCE) were diluted in 100% DMSO, starting at 100 mM, 1 mM, and 1 mM respectively, in 3-fold serial dilutions. For the CB2 assay, Forskolin (Sigma), CP55940 (Cayman Chemicals), and AM630 (MCE) were diluted in 100% DMSO, starting at 100 mM, 1 mM, and 30 mM respectively, in 3-fold serial dilutions. Test compounds were diluted in 100% DMSO starting from 10 mM, 3-fold dilutions. The cAMP assay buffer contains 1× Hank's Buffered Saline Solution with Ca^2+ and Mg^2+ (Invitrogen), 5.3 mM HEPES (Invitrogen), 0.05% BSA, 0.5 mM IBMX (Sigma). For all assays, cells were harvested, counted, and diluted in cAMP assay buffer to 1×10^5 cells/mL. Only cells with viability >85% were used for the assay. Cells were seeded at 1000 cells/well in 384-well plates and 10 nL/well AM251 (for CB1), AM630 (for CB2) or test compound was added and incubated at 37° C. for 10 min. Then forskolin and agonist were added to reach their EC90 and incubated at 25° C. for 30 min. To detect the amount of cAMP produced, 5 μL of a 100× diluted stock of Eu-cAMP tracer and 5 μL of 200× diluted stock of Ulight-anti-cAMP were added to each well, and the plate incubated at 25° C. for 15 min. The FRET signal was read using an EnVision microplate reader (λex=320 nm, λem=615 nm and 665 nm). The results are expressed as % Inhibition, where % inhibition=100−100×(U−C2)/(C1−C2), where U is the FRET ratio (λem (665 nm)/λem (615 nm)) of sample, C1 is the average of the high controls (signal with no antagonist added), and C2 is the average of low controls (signal with the highest concentration of AM251 or AM630 antagonist). The IC50 is determined by fitting the percentage of inhibition as a function of compound concentrations with the Hill equation, using a 4-parameter fit in either XLfit or GraphPad Prism.
(In general: TR-FRET usually uses a lanthanide donor and a delayed reading to cut background.)

The next assay has as its target T2, CB2 receptor (Homo sapiens, UniProt P34972).
T2 construct: host or cells: CB2-CHO cells, stably expressing
As to the kind of experiment: CB2 cAMP antagonist assay (LANCE Ultra cAMP kit). Format: cell-based. The settings on record: CB2-CHO cells stably expressing the CB2 receptor; forskolin and agonist CP55940 at EC90.
Text: as §1, §2

T1 sequence (P21554 whole entry): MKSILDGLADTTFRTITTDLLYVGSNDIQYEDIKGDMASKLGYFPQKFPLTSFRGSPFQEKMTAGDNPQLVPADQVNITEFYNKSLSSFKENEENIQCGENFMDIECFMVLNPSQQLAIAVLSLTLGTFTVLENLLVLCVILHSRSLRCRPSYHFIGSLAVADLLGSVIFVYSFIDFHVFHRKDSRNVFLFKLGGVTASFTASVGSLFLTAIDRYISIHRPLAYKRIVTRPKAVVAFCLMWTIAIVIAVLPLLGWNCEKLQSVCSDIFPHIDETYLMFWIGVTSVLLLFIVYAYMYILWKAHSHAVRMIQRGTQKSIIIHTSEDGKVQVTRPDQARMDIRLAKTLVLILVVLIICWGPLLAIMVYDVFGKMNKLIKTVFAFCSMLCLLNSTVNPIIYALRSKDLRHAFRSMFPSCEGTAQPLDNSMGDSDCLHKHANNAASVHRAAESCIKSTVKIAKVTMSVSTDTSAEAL
T2 sequence (P34972 whole entry): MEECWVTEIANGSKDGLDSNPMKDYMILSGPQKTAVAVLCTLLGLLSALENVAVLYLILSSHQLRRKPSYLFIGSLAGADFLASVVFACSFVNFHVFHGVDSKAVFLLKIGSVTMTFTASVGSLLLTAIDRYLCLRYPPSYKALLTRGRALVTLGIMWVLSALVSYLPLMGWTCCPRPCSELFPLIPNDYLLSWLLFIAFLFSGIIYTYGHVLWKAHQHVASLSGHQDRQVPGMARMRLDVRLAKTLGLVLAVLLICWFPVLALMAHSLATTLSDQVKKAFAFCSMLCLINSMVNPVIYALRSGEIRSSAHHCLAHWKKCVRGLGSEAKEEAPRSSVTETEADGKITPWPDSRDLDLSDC

Turning to `Cn1c(=O)c2c(nc(-c3ccccc3Cl)n2-c2ccc(Cl)cc2)n(Cc2ccc(S(=O)(=O)NCCO)cn2)c1=O` [Compound 164, 6-[[8-(2-chlorophenyl)-7-(4-chlorophenyl)-1-methyl-2,6-dioxopurin-3-yl]methyl]-N-(2-hydroxyethyl)pyridine-3-sulfonamide], the figures for the IC50 at CB1 receptor and on CB2 receptor were less than 100 nM and not below 5 µM, respectively. Turning to `NC(=O)Cn1c(=O)c2c(nc(-c3ccccc3Cl)n2-c2ccc(Cl)cc2)n(CC2CCS(=O)(=O)CC2)c1=O` [Compound 136, 2-[8-(2-chlorophenyl)-7-(4-chlorophenyl)-3-[(1,1-dioxo-1λ^6-thian-4-yl)methyl]-2,6-dioxopurin-1-yl]acetamide], the IC50 is less than 100 nM on CB1 receptor and not below 5 µM on CB2 receptor.

For the molecule `Cn1c(=O)c2c(nc(-c3ccccc3Cl)n2-c2ccc(Cl)cc2)n(C2CCCCC2)c1=O` [Compound 103], the values for the IC50 on CB1 receptor and on CB2 receptor were less than 100 nM and not below 5 µM, respectively. Consider `O=c1c2c(nc(-c3ccccc3Cl)n2-c2ccc(Cl)cc2)n(C2CCCCC2)c(=O)n1CCCO` [Compound 105], for which the IC50 was less than 100 nM at CB1 receptor and not below 5 µM on CB2 receptor. The corresponding values for `NC(=O)Cn1c(=O)c2c(nc(-c3ccccc3Cl)n2-c2ccc(Cl)cc2)n(CC2CCOCC2)c1=O` [Compound 125, 2-[8-(2-chlorophenyl)-7-(4-chlorophenyl)-3-(oxan-4-ylmethyl)-2,6-dioxopurin-1-yl]acetamide] are less than 100 nM and not below 5 µM. On to `O=c1[nH]c(=O)n(C2CCCCC2)c2nc(-c3ccccc3Cl)n(-c3ccc(Cl)cc3)c12` [Compound 100], for which the results for the IC50 at CB1 receptor and on CB2 receptor were less than 100 nM and not below 5 µM, respectively. As for `CC(c1ccc(C(N)=O)cc1)n1c(=O)n(C[C@@H](O)CO)c(=O)c2c1nc(-c1ccccc1Cl)n2-c1ccc(Cl)cc1` (stereo in doubt) [Compound 150, 4-[(1S)-1-[8-(2-chlorophenyl)-7-(4-chlorophenyl)-1-[(2R)-2,3-dihydroxypropyl]-2,6-dioxopurin-3-yl]ethyl]benzamide], the IC50 on CB1 receptor is less than 100 nM; at CB2 receptor, not below 5 µM. With `Cn1c(=O)c2c(nc(-c3ccccc3Cl)n2-c2ccc(Cl)cc2)n(Cc2ccc(C(=O)NCCO)cc2)c1=O` [Compound 112], the IC50 at CB1 receptor is less than 100 nM; at CB2 receptor it was not below 5 µM. For the molecule `Cn1c(=O)c2c(nc(-c3ccccc3Cl)n2-c2ccc(Cl)cc2)n(Cc2ccc(S(N)(=O)=O)cc2)c1=O` [Compound 135, 4-[[8-(2-chlorophenyl)-7-(4-chlorophenyl)-1-methyl-2,6-dioxopurin-3-yl]methyl]benzenesulfonamide], the IC50 is less than 100 nM on CB1 receptor and not below 5 µM on CB2 receptor. For `NC(=O)Cn1c(=O)c2c(nc(-c3ccccc3Cl)n2-c2ccc(Cl)cc2)n(C2CCCCC2)c1=O` [Compound 106], the IC50 at CB1 receptor was less than 100 nM; at CB2 receptor, not below 5 µM. On to `COCCn1c(=O)c2c(nc(-c3ccccc3Cl)n2-c2ccc(Cl)cc2)n(C2CCCCC2)c1=O` [Compound 101], for which the IC50 at CB1 receptor is less than 100 nM; on CB2 receptor, not below 5 µM. For `NC(=O)c1ccc(Cn2c(=O)n(C[C@@H](O)CO)c(=O)c3c2nc(-c2ccccc2Cl)n3-c2ccc(Cl)cc2)cc1` [Compound 132, 4-[[8-(2-chlorophenyl)-7-(4-chlorophenyl)-1-[(2R)-2,3-dihydroxypropyl]-2,6-dioxopurin-3-yl]methyl]benzamide], the IC50 on CB1 receptor is less than 100 nM; on CB2 receptor it was not below 5 µM.

Turning to `O=c1c2c(nc(-c3ccccc3Cl)n2-c2ccc(Cl)cc2)n(C2CCCCC2)c(=O)n1CCO` [Compound 104, 8-(2-chlorophenyl)-7-(4-chlorophenyl)-3-cyclohexyl-1-(2-hydroxyethyl)-2,3,6,7-tetrahydro-1H-purine-2,6-dione], the IC50 was less than 100 nM on CB1 receptor and not below 5 µM at CB2 receptor. As to `C[C@H](c1ccc(C(=O)NCCO)cc1)n1c(=O)n(C)c(=O)c2c1nc(-c1ccccc1Cl)n2-c1ccc(Cl)cc1` [Compound 131], the IC50 is less than 100 nM at CB1 receptor and not below 5 µM on CB2 receptor. For `Cn1c(=O)c2c(nc(-c3ccccc3Cl)n2-c2ccc(Cl)cc2)n(Cc2ccc(C(=O)NC3CCOCC3)cn2)c1=O` [Compound 165] the same measures were less than 100 nM and not below 5 µM. Turning to `Cn1c(=O)c2c(nc(-c3ccccc3Cl)n2-c2ccc(Cl)cc2)n(Cc2ccc(S(N)(=O)=O)cn2)c1=O` [Compound 159, 6-[[8-(2-chlorophenyl)-7-(4-chlorophenyl)-1-methyl-2,6-dioxopurin-3-yl]methyl]pyridine-3-sulfonamide], the results for the half-inhibitory concentration (IC50) on CB1 receptor and on CB2 receptor were less than 100 nM and not below 5 µM, respectively. For `CS(=O)(=O)N1CCC(Cn2c(=O)n(CC(N)=O)c(=O)c3c2nc(-c2ncccc2Cl)n3-c2ccc(Cl)cc2)CC1` [Compound 170, 2-[7-(4-chlorophenyl)-8-(3-chloropyridin-2-yl)-3-[(1-methanesulfonylpiperidin-4-yl)methyl]-2,6-dioxopurin-1-yl]acetamide] the same measures were less than 100 nM and not below 5 µM.

`COC(=O)c1ccc(Cn2c(=O)n(C)c(=O)c3c2nc(-c2ccccc2Cl)n3-c2ccc(Cl)cc2)cc1` [Compound 108] yielded an IC50 at CB1 receptor of less than 100 nM.

The molecule `CC(C)(C)C(=O)OCn1c(=O)c2c(nc(-c3ccccc3Cl)n2-c2ccc(Cl)cc2)n(C2CCCCC2)c1=O` [Compound 102] had an IC50 at CB1 receptor of less than 100 nM.

Take `Cn1c(=O)c2c(nc(-c3ccccc3Cl)n2-c2ccc(Cl)cc2)n(Cc2ccc(C(=O)NC3CCOC3)cn2)c1=O` (stereo not drawn) [Compound 167]: at CB1 receptor, the IC50 was less than 100 nM.

As to `Cn1c(=O)c2c(nc(-c3ccccc3Cl)n2-c2ccc(Cl)cc2)n(Cc2ccc(C(N)=O)cc2)c1=O` [Compound 114], the results for the IC50 on CB1 receptor and at CB2 receptor were less than 100 nM and not below 5 µM, respectively.
